Test results reported in US12569467B2, “Small molecules that treat or prevent viral infections” (priority 2022, dated 2026).
pEC50: −log10 of the molar value.

What was measured:
[1] = system: SARS-CoV-2 variant Delta Spike protein pseudotyped lentiviral particles; experiment: microbe, parasite or virus in culture; format: cell-based, SARS-CoV-2 Delta variant; conditions: Severe acute respiratory syndrome coronavirus 2, HEK293, read-out: EC50, inhibition of infection of Delta variant
[2] = system: SARS-CoV-2 variant Omicron Spike protein pseudotyped lentiviral particles; experiment: microbe, parasite or virus in culture; format: cell-based, SARS-CoV-2 Omicron variant; conditions: Severe acute respiratory syndrome coronavirus 2, HEK293, read-out: EC50, inhibition of infection of Omicron variant
[3] = system: spike protein of Delta variant; format: binding, SARS-CoV2 Delta variant
[4] = system: spike protein of Omicron variant; format: binding, SARS-CoV2 Omicron variant

Question: O=C1Nc2ccccc2/C1=C\c1ccc(-c2cc(C(F)(F)F)cc(C(F)(F)F)c2)o1 [CD04872SC, 3-({5-[3,5-di(trifluoromethyl)phenyl]-2-furyl}methylidene)indolin-2-one] was tested. Which pEC50 [1] did it give?
Answer: 3.82

Question: And the pEC50 [2]?
Answer: 3.51

Question: What about the “thermal stability change in presence of compound” value [3] of the same compound?
Answer: same stabilizing tendency

Question: And the “thermal stability change in presence of compound” value [4]?
Answer: same stabilizing tendency
